O=C(O)CCCCCCCC(=O)O
solubility (mole fraction)
Details	288.15 K	293.15 K	298.15 K	303.15 K	308.15 K	315.15 K	318.15 K	323.15 K
in acetic acid	0.0333	0.04	0.0524	0.0631	0.0761	0.0923	0.111	0.133
in acetone	0.029	0.0331	0.04	0.0494	0.0634	0.0806	0.103	0.143
in ethanol	0.0534	0.0601	0.0707	0.0851	0.102	0.124	0.15	0.185
in ethyl acetate	0.00911	0.0113	0.0162	0.0232	0.0326	0.0524	0.0663	0.0964

O=C(O)CCCC(=O)O
solubility (mole fraction)
Details	288.15 K	293.15 K	298.15 K	303.15 K	308.15 K	315.15 K	318.15 K	323.15 K
in acetic acid	0.173	0.196	0.221	0.241	0.276	0.31	0.341	0.385
in acetone	0.183	0.207	0.237	0.264	0.329	0.324	0.375	0.417
in ethanol	0.136	0.158	0.176	0.201	0.228	0.274	0.322	0.35
in ethyl acetate	0.0861	0.105	0.123	0.133	0.146	0.176	0.227	0.307

O=C(O)CCCCCC(=O)O
solubility (mole fraction)
Details	288.15 K	293.15 K	298.15 K	303.15 K	308.15 K	315.15 K	318.15 K	323.15 K
in acetic acid	0.0648	0.0794	0.0964	0.119	0.14	0.169	0.199	0.232
in acetone	0.0546	0.0752	0.118	0.146	0.174	0.202	0.224	0.246
in ethanol	0.0677	0.0851	0.104	0.126	0.15	0.178	0.204	0.237
in ethyl acetate	0.0233	0.0321	0.0517	0.0718	0.0802	0.0904	0.102	0.128

O=C(O)CCCCCCC(=O)O
solubility (mole fraction)
Details	288.15 K	293.15 K	298.15 K	303.15 K	308.15 K	315.15 K	318.15 K	323.15 K
in acetic acid	0.0115	0.0145	0.0176	0.0216	0.0264	0.0329	0.0405	0.0501
in acetone	0.0092	0.0127	0.0167	0.021	0.025	0.0301	0.0356	0.0405
in ethanol	0.0208	0.0253	0.031	0.0375	0.0454	0.0553	0.0683	0.0847
in ethyl acetate	0.00238	0.00302	0.00389	0.00513	0.00641	0.00819	0.00978	0.0118
